# Experimental data taken from ChEMBL document CHEMBL4619760, “Anti-inflammatory Efficacy of Combined Natural Alkaloid Berberine and S1PR Modulator Fingolimod at Low Doses in Ulcerative Colitis Preclinical Models” (J Nat Prod, 2020).
# Calls of active or inactive are those of the source. No cut-off for these calls is given here.
# Tests used:
# [1] = system: Mus musculus; assay: (§1) Anti-colitis activity against DSS-induced C57BL/6 mouse model of chronic relapsing colitis assessed as reduction in DSS-induced mononuclear cell infiltration in spleen at 0.3 mg/kg, po administered once daily for 30 days starting from day 13 post DSS-challenge by hematoxylin and eosin staining based light microscopic analysis; format: functional, organism-based
# [2] = (§2) Toxicity in DSS-induced C57BL/6 mouse model of chronic relapsing colitis assessed as induction of abnormalities in liver at 0.3 mg/kg, po administered once daily for 30 days starting from day 13 post DSS-challenge by hematoxylin and eosin staining based light microscopic analysis; format: organism-based; settings: in vivo, 720 h
# [3] = system: Mus musculus; assay: Anti-colitis activity against DSS-induced C57BL/6 mouse model of chronic relapsing colitis assessed as reduction in DSS-induced loss of colon crypt and columnar epithelium at 0.3 mg/kg, po administered once daily for 30 days starting from day 13 post DSS-challenge; format: functional, organism-based
# [4] = system: Mus musculus; assay: Anti-colitis activity against DSS-induced C57BL/6 mouse model of subchronic relapsing colitis assessed as reduction in stool consistency scores at 0.3 mg/kg, po administered once daily for 14 days starting from day 5 post DSS challenge and measured on day 19; format: functional, organism-based
# [5] = system: Mus musculus; assay: Anti-colitis activity against DSS-induced C57BL/6 mouse model of subchronic relapsing colitis assessed as reduction in phosphorylated STAT3 level at 0.3 mg/kg, po administered once daily for 14 days starting from day 5 post DSS-challenge cotreated with 20 mg/kg berberine by Western blot analysis; format: functional, organism-based
# [6] = system: Mus musculus; assay: Anti-colitis activity against DSS-induced C57BL/6 mouse model of chronic relapsing colitis assessed as reduction in DSS-induced inflammatory cell infiltration in colon at 0.15 mg/kg, po administered once daily for 30 days starting from day 13 post DSS-challenge cotreated with 20 mg/kg berberine; format: functional, organism-based
# [7] = system: Mus musculus; assay: Anti-colitis activity against DSS-induced C57BL/6 mouse model of subchronic relapsing colitis assessed as reduction in disease activity index at 0.3 mg/kg, po administered once daily for 14 days starting from day 5 post DSS challenge and measured on day 19; format: functional, organism-based
# [8] = (§3) Toxicity in DSS-induced C57BL/6 mouse model of chronic relapsing colitis assessed as induction of abnormalities in brain at 0.3 mg/kg, po administered once daily for 30 days starting from day 13 post DSS-challenge by hematoxylin and eosin staining based light microscopic analysis; format: organism-based; settings: in vivo, 720 h
# [9] = system: Mus musculus; assay: as §1, with “0.15” for “0.3”, “DSS-challenge cotreated with 20 mg/kg berberine” for “DSS-challenge”; format: functional, organism-based
# [10] = as §3, with “0.15” for “0.3”, “DSS-challenge cotreated with 20 mg/kg berberine” for “DSS-challenge”; format: organism-based; settings: in vivo, 720 h
# [11] = as §2, with “heart” for “liver”, “0.15” for “0.3”, “DSS-challenge cotreated with 20 mg/kg berberine” for “DSS-challenge”; format: organism-based; settings: in vivo, 720 h
# [12] = system: Mus musculus; assay: Antiinflammatory activity against DSS-induced C57BL/6 mouse model of subchronic relapsing colitis assessed as reduction in TNFalpha mRNA level at 0.3 mg/kg, po administered once daily for 14 days starting from day 5 post DSS-challenge by RT-qPCR analysis; format: functional, organism-based
# [13] = system: Mus musculus; assay: Antiinflammatory activity against DSS-induced C57BL/6 mouse model of subchronic relapsing colitis assessed as reduction in IL6 mRNA level at 0.15 mg/kg, po administered once daily for 14 days starting from day 5 post DSS-challenge cotreated with 20 mg/kg berberine by RT-qPCR analysis; format: functional, organism-based
# [14] = system: Mus musculus; assay: Anti-colitis activity against DSS-induced C57BL/6 mouse model of chronic relapsing colitis assessed as reduction in stool consistency score at 0.15 mg/kg, po administered once daily for 30 days starting from day 13 post DSS-challenge cotreated with 20 mg/kg berberine measured on day 43; format: functional, organism-based
# [15] = as §2, with “kidney” for “liver”, “0.15” for “0.3”, “DSS-challenge cotreated with 20 mg/kg berberine” for “DSS-challenge”; format: organism-based; settings: in vivo, 720 h
# [16] = system: Mus musculus; assay: Anti-colitis activity against DSS-induced C57BL/6 mouse model of subchronic relapsing colitis assessed as reduction in phosphorylated STAT3 level at 0.3 mg/kg, po administered once daily for 14 days starting from day 5 post DSS-challenge by Western blot analysis; format: functional, organism-based
structure (smiles),measurement,setting,value
CCCCCCCCc1ccc(CCC(N)(CO)CO)cc1.Cl [FINGOLIMOD HYDROCHLORIDE],Activity,[1],Active
same,Activity,[2],Non-Toxic
same,Activity,[3],Active
same,Activity,[4],Active
same,Activity,[5],Active
same,Activity,[6],Active
same,Activity,[7],Active
same,Activity,[8],Non-Toxic
same,Activity,[9],Active
same,Activity,[10],Non-Toxic
same,Activity,[11],Non-Toxic
same,Activity,[12],Active
same,Activity,[13],Active
same,Activity,[14],Active
same,Activity,[15],Non-Toxic
same,Activity,[16],Active
